Reference: PubChem BioAssay AID1963843 (Molecular Pharmacology Branch, DTP, NCI, 2024)
pIC50: −log10 of the molar value. “And” between values parts separate entries of the source, which are not always exact repeats. Identical values can stand only once.

Test system: 616215-338-R-J1-PDC complex spheroid viability
Assay: Anticancer human tumor 616215-338-R-J1-PDC patient-derived colon adenocarcinoma cell line growth inhibition [POLQ]
Conditions: for viability, T/C: stronger effect = lower value; active means viability on the fitted dose curve at most 10% of control; inactive means the rest
Experimental: Multicellular complex tumor spheroid response to Polymerase (POL) inhibitors (novobiocin, ART-558, RP6685) in combination with a variety of drugs and investigational agents in selected tumor cell lines
The POL inhibitors (novobiocin, ART-558, and RP6685) were evaluated both individually and in combination with standard of care and investigational anticancer small molecules within a complex spheroid model of solid tumors. . Complex spheroids include a stromal component modeled by human endothelial cells (HUVEC) and fibroblasts modeled by human mesenchymal stem cells (MSCs). The concentration ranges selected for each drug and investigational agent were based upon clinically achievable concentrations if the clinical Cmax of the agent was known.
Compounds. The drugs and investigational agents: novobiocin (NSC847541), ART-558 (NSC835418), RP-6685 (NSC848927), peposertib (NSC802822), ceralasertib (NSC780249), elimusertib (NSC800525), camonsertib (NSC841442), AZD-1390 (NSC803789), olaparib (NSC753686), talazoparib (NSC767125), rucaparib (NSC756644), sotorasib (NSC818433), MRTX-1133 (NSC836407), SN-38 (NSC673596), topotecan (NSC609699), epotoside (NSC141540), doxorubicin (NSC123127), gemcitabine (NSC613327), 5-fluorouracil (NSC19893), paclitaxel (NSC125973), vemurafenib (NSC761431), MSA-2 (NSC828583), SN-011 (NSC837082), adavosertib (NSC754352), prexasertib (NSC758257), carboplatin (NSC241240) and oxaliplatin (NSC266046), were obtained from the National Cancer Institute (NCI) Developmental Therapeutics Program Chemical Repository (21). The FDA-approved anticancer drug set is available from the Developmental Therapeutics Program at https://dtp.cancer.gov/organization/dscb/obtaining/. […] The stock solutions were prepared in dimethyl sulfoxide (DMSO, Sigma-Aldrich, St. Louis, MO, cat. D2650), except for the platinum compounds which were prepared in saline (Quality Biological, Gaithersburg, MD, cat. 114-055-101), at 800-fold the tested concentration and stored at -70 degrees C prior to their use. All drugs and investigational agents were tested over a range starting from a high concentration at or near the clinical Cmax and decreasing in half-log increments. If the clinical Cmax for an agent had not been determined, the highest concentration tested was 10 microM, except for SN-38, which was tested at a high concentration of 1 microM.
Cell Culture. All cells were maintained in an incubator at 37 degrees C and 5% CO2 with 95% humidity. The PDC lines were cultured according to standard operating procedures established by the NCI PDMR (https://pdmr.cancer.gov). Table 3 of the manuscript, lists the cell lines along with the number of the three cell types plated to form the mct-spheroids and media for tumor cell growth. After thawing, all PDC lines, except 997537-175-T-J1-PDC and 415267-285-R-J2-PDC, were cultured in Matrigel-coated flasks prepared with a working solution of 1X Ham's F-12 nutrient mix, without supplementation (Thermo Fisher Scientific, cat. 11765054), 100 U/mL penicillin-streptomycin (Thermo Fisher Scientific, cat. 15140122), and 2.5% Matrigel (Corning Inc., Corning, NY, cat. 354248) for the first three passages. The two PDC lines 997537-175-T-J1-PDC and 415267-285-R-J2-PDC were cultured on uncoated flasks. The 857933-349-R-J2-PDC line was cultured in 6C/Colon 1B media containing advanced DMEM/F-12 (Thermo Fisher Scientific, cat. 12634028), 10 mM HEPES (Thermo Fisher Scientific, cat. 15630080), 1X GlutaMAX supplement (Thermo Fisher Scientific, cat. 35050061), 0.1 mg/mL primocin (InvivoGen, San Diego, CA, cat. ant-pm-2), 10% defined fetal bovine serum, heat inactivated (HyClone Laboratories Inc., Logan, UT, cat. SH30070.03HI), 50% L-WRN conditioned media (ATCC, cat. CRL-3276), 1.25 mM N-Acetyl-L-cysteine (Sigma-Aldrich, cat. A9165), 10 mM nicotinamide (Sigma-Aldrich, cat. N0636), 1X B-27 supplement (Thermo Fisher Scientific, cat. 17504044), 1X N-2 supplement (Thermo Fisher Scientific, cat. […]
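Further: spheroids exposed to compounds for one week before readout.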
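Wherever viability, T/C is given: percent viability relative to DMSO vehicle wells taken as 100%.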

COc1cccc(OCCCN)c1-c1cc(Nc2cnc(C#N)cn2)n[nH]1 + Nc1ccc(C#CCN(C(=O)Cc2ncc(C(F)(F)F)cc2C(F)(F)F)c2ccc(F)cc2)nn1
7.12: pIC50 (curve of first compound, second compound 0.316 µM)
inactive: viability, T/C (second compound 0.0316 µM, first compound 0.00316 µM) 109% | viability, T/C (second compound 0.0316 µM, first compound 0.01 µM) 84.9% | viability, T/C (second compound 0.0316 µM, first compound 0.0316 µM) 91.2% | viability, T/C (second compound 0.0316 µM, first compound 0.1 µM) 53.8% | viability, T/C (second compound 0.0316 µM, first compound 0.316 µM) 36.9% | viability, T/C (second compound 0.0316 µM, first compound 1 µM) 33.1% | viability, T/C (second compound 0.1 µM, first compound 0.00316 µM) 101% | viability, T/C (second compound 0.1 µM, first compound 0.01 µM) 102% | viability, T/C (second compound 0.1 µM, first compound 0.0316 µM) 77.3% | viability, T/C (second compound 0.1 µM, first compound 0.1 µM) 43% | viability, T/C (second compound 0.1 µM, first compound 0.316 µM) 42.6% | viability, T/C (second compound 0.1 µM, first compound 1 µM) 36% | viability, T/C (second compound 0.316 µM, first compound 0.00316 µM) 98.9% | viability, T/C (second compound 0.316 µM, first compound 0.01 µM) 97.2% | viability, T/C (second compound 0.316 µM, first compound 0.0316 µM) 71.2% | viability, T/C (second compound 0.316 µM, first compound 0.1 µM) 43.3% | viability, T/C (second compound 0.316 µM, first compound 0.316 µM) 42.4% | viability, T/C (second compound 0.316 µM, first compound 1 µM) 34.7% | viability, T/C (second compound 1 µM, first compound 0.00316 µM) 97.5% | viability, T/C (second compound 1 µM, first compound 0.01 µM) 96.6% | viability, T/C (second compound 1 µM, first compound 0.0316 µM) 60.3% | viability, T/C (second compound 1 µM, first compound 0.1 µM) 38.6% | viability, T/C (second compound 1 µM, first compound 0.316 µM) 38% | viability, T/C (second compound 1 µM, first compound 1 µM) 29.4% | viability, T/C (second compound 3.16 µM, first compound 0.00316 µM) 103% | viability, T/C (second compound 3.16 µM, first compound 0.01 µM) 90.3% | viability, T/C (second compound 3.16 µM, first compound 0.0316 µM) 72.7% | viability, T/C (second compound 3.16 µM, first compound 0.1 µM) 35.7% | viability, T/C (second compound 3.16 µM, first compound 0.316 µM) 32.9% | viability, T/C (second compound 3.16 µM, first compound 1 µM) 29.7% | viability, T/C (second compound 10 µM, first compound 0.00316 µM) 91.7% | viability, T/C (second compound 10 µM, first compound 0.01 µM) 69.3% | viability, T/C (second compound 10 µM, first compound 0.0316 µM) 50.2% | viability, T/C (second compound 10 µM, first compound 0.1 µM) 41.2% | viability, T/C (second compound 10 µM, first compound 0.316 µM) 34.4% | viability, T/C (second compound 10 µM, first compound 1 µM) 24%
7.10: pIC50 (curve of first compound, second compound 0.1 µM)
7.41: pIC50 (curve of first compound, second compound 10 µM)
6.87: pIC50 (curve of first compound, second compound 0.0316 µM)
7.28: pIC50 (curve of first compound, second compound 1 µM)
7.18: pIC50 (curve of first compound, second compound 3.16 µM)

O=c1[nH]cc(F)c(=O)[nH]1
inactive: viability, T/C (compound 0.0316 µM) 83.7% and 97.8% and 96% | viability, T/C (compound 0.1 µM) 96.6% and 86.5% and 89.8% | viability, T/C (compound 0.316 µM) 68.4% and 54.6% and 65.8% | viability, T/C (compound 1 µM) 65.9% and 43.5% and 65.6% | viability, T/C (compound 3.16 µM) 63.8% and 43.7% and 60.7% | viability, T/C (compound 10 µM) 62.4% and 39.2% and 60.1%

CC[C@@]1(O)C(=O)OCc2c1cc1n(c2=O)Cc2cc3c(CN(C)C)c(O)ccc3nc2-1
< 7.00 and 7.18: pIC50 (curve of compound)
inactive: viability, T/C (compound 0.000316 µM) 83.5% and 113% and 93.4% | viability, T/C (compound 0.001 µM) 99.2% and 100% and 96.4% | viability, T/C (compound 0.00316 µM) 99.6% and 109% and 96.2% | viability, T/C (compound 0.01 µM) 97.7% and 101% and 110% | viability, T/C (compound 0.0316 µM) 111% and 70.1% and 103% | viability, T/C (compound 0.1 µM) 82.6% and 39% and 93.5%

CC1COCCN1c1cc(-c2ccnn2C)c2ccnc(-c3ccn[nH]3)c2n1 (stereo unspecified)
inactive: viability, T/C (compound 0.0316 µM) 95.3% and 98.7% and 94% | viability, T/C (compound 0.1 µM) 102% and 90.3% and 66% | viability, T/C (compound 0.316 µM) 73.7% and 70.5% and 39.4% | viability, T/C (compound 1 µM) 60.4% and 47.1% and 31.4% | viability, T/C (compound 3.16 µM) 50% and 27.1% and 28.4% | viability, T/C (compound 10 µM) 44.6% and 40.1% and 21.7%

CC1COCCN1c1cc(C2(O)CC3CCC(C2)O3)c2cnn(-c3ccn[nH]3)c2n1 (stereo unspecified)
inactive: viability, T/C (compound 0.0316 µM) 99.2% and 95.5% and 88% | viability, T/C (compound 0.1 µM) 91.8% and 93% and 73.8% | viability, T/C (compound 0.316 µM) 73.3% and 70.1% and 46.3% | viability, T/C (compound 1 µM) 76.6% and 53.7% and 34.7% | viability, T/C (compound 3.16 µM) 54% and 46% and 21% | viability, T/C (compound 10 µM) 40.1% and 32.2% and 19.3%

CNCc1ccc(-c2[nH]c3cc(F)cc4c3c2CCNC4=O)cc1
inactive: viability, T/C (compound 0.0316 µM) 92.7% and 108% and 87.4% | viability, T/C (compound 0.1 µM) 99.1% and 101% and 106% | viability, T/C (compound 0.316 µM) 102% and 104% and 96.3% | viability, T/C (compound 1 µM) 96.4% and 106% and 107% | viability, T/C (compound 3.16 µM) 103% and 107% and 96.9% | viability, T/C (compound 10 µM) 90.2% and 26.3% and 83.5%
< 5.00 and 5.15: pIC50 (curve of compound)

COc1cc2cc(C(=O)CCC(=O)O)sc2cc1OC
< 5.00: pIC50 (curve of compound)
inactive: viability, T/C (compound 0.0316 µM) 99% and 105% and 100% | viability, T/C (compound 0.1 µM) 97.3% and 102% and 92.3% | viability, T/C (compound 0.316 µM) 109% and 107% and 92.4% | viability, T/C (compound 1 µM) 95.5% and 105% and 98% | viability, T/C (compound 3.16 µM) 105% and 104% and 93.1% | viability, T/C (compound 10 µM) 99.8% and 105% and 109%
